In EP0181129B1, “N6-substituted deoxyribose analogs of adenosines” (WARNER-LAMBERT COMPANY, priority 1984, dated 1986):
“And” between values parts separate entries of the source, which are not always exact repeats. Identical values can stand only once.

How the values were obtained:
[1] = target: T1, adenosine A2 receptor (Rattus norvegicus, UniProt P30543); assay: Adenosine Receptor Binding - A2 Receptor Affinity (RBA2), [3H]NECA displacement; conditions: 4 nM [3H]NECA with 50 nM N6-cyclopentyladenosine, rat striatal membranes, 60 minutes at 25°C; read-out: Receptor Binding RBA—2
T1 construct: Brains were thawed and then kept on ice while the striata were dissected out; tissue Pel-Freez (Rogers, Arkansas); host or cells: rat striatum, membranes
T1 sequence (P30543 whole entry): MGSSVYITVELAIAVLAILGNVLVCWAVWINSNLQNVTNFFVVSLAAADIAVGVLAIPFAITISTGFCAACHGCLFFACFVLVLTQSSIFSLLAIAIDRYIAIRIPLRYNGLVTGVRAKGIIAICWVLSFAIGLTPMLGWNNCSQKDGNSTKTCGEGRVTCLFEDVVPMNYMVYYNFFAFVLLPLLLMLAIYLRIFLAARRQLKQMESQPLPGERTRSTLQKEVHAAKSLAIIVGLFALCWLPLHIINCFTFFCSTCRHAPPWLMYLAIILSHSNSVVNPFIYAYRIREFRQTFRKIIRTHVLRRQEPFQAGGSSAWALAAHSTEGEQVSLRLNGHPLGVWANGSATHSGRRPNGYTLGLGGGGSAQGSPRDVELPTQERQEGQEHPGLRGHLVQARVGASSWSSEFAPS
Procedure: Brains from 200-500 g mixed sex Sprague-Dawley rats were purchased from Pel-Freez (Rogers, Arkansas). Fresh brains from male Long-Evans hooded rats (Blue Spruce Farms, Altamont, NY) gave essentially indentical results. Brains were thawed and then kept on ice while the striata were dissected out. Striata were disrupted in 10 vol of ice-cold 50 mM Tris.HCI (pH 7.7 at 25°C, pH 8.26 at 5°C) (Tris) for 30 seconds in a Polytron PT―10 (Brinkmann) at setting 5. The suspension was centrifuged at 50,000 xg for ten minutes, the supernatant discarded, the pellet resuspended in 10 vol ice-cold Tris as above, recentrifuged, resuspended at 1 g/5 ml, and stored in plastic vials at -70°C (stable for at least six months). When needed, tissue was thawed at room temperature, disrupted in a Polytron, and kept on ice until used.
All incubations were for 60 minutes at 25°C in 12x75 mm glass tubes containing 1 ml Tris with 5 mg original tissue weight of rat weight of rat striatal membranes, 4 nM [^3H]-N-ethyl adenosine-5'-carboxamide ([^3H]NECA), 50 nM N^6-cyclopentyladenosine (to eliminate A1 receptor binding), 10 mM MgCl2, 0.1 units/ml, of adenosine deaminase and 1% dimethylsulfoxide. N^6-Cyclopentyladenosine was dissolved at 10 mM in 0.02 N HCI and diluted in Tris. Stock solutions and dilutions of N^6-cyclopentyladenosine could be stored at -20°C for several months. Test compounds were dissolved at 10 mM in dimethylsulfoxide or the same day as the experiment, and diluted in dimethylsulfoxide to 100x the final incubation concentration. Control incubations received an equal volume (10 µl) of dimethylsulfoxide; the resulting concentration of dimethylsulfoxide had no effect on binding. [^3H]NECA was diluted to 40 nM in Tris. The membrane suspension (5 mg/0.79 ml) contained sufficient MgCl2 and adenosine deaminase to give 10 mM and 0.1 units/ml, respectively, final concentration in the incubation. […] After all additions, the rack of tubes was vortexed, and the tubes were then incubated for 60 min at 25°C in a shaking water bath. The rack of tubes was vortexed an additonal time halfway through the incubation.
Incubations were terminated by filtration through 2.4 cm GF/B filters under reduced pressure. Each tube was filtered as follows: the contents of the tube were poured onto the filter, 4 ml of ice-cold Tris were added to the tube and the contents poured onto the filter, and the filter was washed twice with 4 ml of ice-cold Tris. The filtration was complete in about twelve seconds. Filters were put in scintillation vials, 8 ml of Formula 947 scintillation fluid added, and the vials left overnight, shaken, and counted in a liquid scintillation counter at 40% efficiency.
Nonspecific binding was defined as binding in the presence of […] N^6-cyclopentyladenosine, and specific binding was defined as total binding minus nonspecific binding. The IC50 was calculated by weighted nonlinear least squares curve-fitting to the mass-action equation. [formula] • where Y is cpm bound T is cpm total binding without drug S is cpm specific binding without drug D is the concentration of drug • and K is the IC50 of the drug Weighting factors were calculated under the assumption that the standard deviation was proportional to the predicted value of Y. Nonspecific binding was treated as a very large (infinite) concentration of drug in the computer analysis.

[2] = system: Swiss-Webster male mice; assay: Mouse Activity and Screen Test Procedure (MAST); format: in vivo; conditions: for Inhibition of Mouse Locomotor Activity: one hour prior to testing; for Screen Test Failure: percent of mice falling off the screen
Description: The compounds of the invention are new chemical substances which are useful as pharmaceutical agents for the treatment of psychoses. The antipsychotic activity of representative compounds of the invention was established by the Mouse Activity and Screen Test Procedure (MAST) described below.
Nine unfasted Swiss-Webster male mice weighing 20-30 g are equally divided into three groups for each drug dose to be tested. That is, data for each dose level was generated by three separate groups of three mice each.
A minimum of three dose levels (10, 30, and 100 mg/kg) are tested for each drug. Treatments are administered intraperitoneally one hour prior to testing. All dosages are calculated as parent compound and given in volumes of 10 ml/kg. Compounds are dissolved or suspended in 0.2% Methocel. Control animals are injected with Methocel.
A two part testing procedure is started one hour post injection. First, the screen test (ST) is performed (see Pharmac. Biochem. Behav. 6, 351-353, 1977). Briefly this test consists of placing mice on individual wire screens which are then rotated 180 degrees at the start of a 60 second observation period. The number of mice falling off the inverted screen is recorded.
Immediately following the screen test, the final phase of testing is initiated by placing each group of three mice in one actophotometer (Life Sciences, 22,1067-1076,1978). The actophotometer consists of a cylindrical chamber whose center is occupied by another cylinder which contains the illumination for six photocells located on the perimeter of the chamber. Six light-beam interruptions equal one count. Locomotor activity is recorded by computer at ten minutes intervals for 60 minutes.
The data obtained from the screen test are expressed as percent of mice falling off the screen. Data derived from locomotor activity of drug treated mice are compared to the activity of vehicle treated animals and are expressed as percent inhibition of spontaneous locomotion. All percentages reported for inhibition of locomotion (LI) are based upon data accumulated for one hour. Both phases of testing are graded: A=60-100%; C=31-59%; and N=0-30%. An overall dose rating is obtained by the following criteria:
LAD refers to the lowest dose at which an A rating is achieved. […] Utilizing this procedure, an overall dose rating of A was obtained for the noted compound at the indicated dose. The compounds are identified in the Examples.

[3] = Dose 0.3 mg/kg intraperitoneally
[4] = Dose 10 mg/kg intraperitoneally
[5] = Dose 30 mg/kg intraperitoneally

SMILES	IC50 [1] [µM]	Inhibition of Mouse Locomotor Activity [2, 3] [%]	Screen Test Failure [2, 3] [%]	Inhibition of Mouse Locomotor Activity ([2]; Dose 1 mg/kg intraperitoneally, 1 mg/kg)	Screen Test Failure ([2]; Dose 1 mg/kg intraperitoneally) [%]	Inhibition of Mouse Locomotor Activity ([2]; Dose 3 mg/kg intraperitoneally) [%]	Screen Test Failure ([2]; Dose 3 mg/kg intraperitoneally) [%]	Inhibition of Mouse Locomotor Activity [2, 4] [%]	Screen Test Failure [2, 4] [%]	Inhibition of Mouse Locomotor Activity [2, 5] [%]	Screen Test Failure [2, 5] [%]
O[C@@H]1[C@H](O)[C@@H](CCl)O[C@H]1n1cnc2c(NC3CCc4ccccc43)ncnc21 (stereo partly drawn) [Example 23, (R)-N^6(1-Indanyl)-5'-deoxy-5'-chloroadenosine]	3.04	−2	0	0% and 7%	0	48	0	76	0	81	0
C[C@H]1O[C@@H](n2cnc3c(NCc4cccc5ccccc45)ncnc32)[C@H](O)[C@@H]1O [Example 20, N^6-α-Naphthylmethyl-5' -deoxyadenosine]	0.323	–	–	–	–	−1	0	49	0	81	0
C[C@H]1O[C@@H](n2cnc3c(NC4CCCc5ccccc54)ncnc32)[C@H](O)[C@@H]1O (stereo partly shown) [Example 19, N^6-1-Tetralinyl-5' -deoxyadenosine]	71.3	–	–	–	–	36	11	55	0	83	0
